{"source": "patent US20100179344A1", "about": "“2-Alkylidene-18,19-Dinor-Vitamin D Compounds” (WISCONSIN ALUMNI RESEARCH FOUNDATION, priority 2004, published 2010)", "key": {"HL-60 cells": {"system": "HL-60 cells", "experiment": "HL-60 cell differentiation (NBT reduction)", "format": "cell-based, human", "details": "FIG. 2; for percent of HL-60 cells induced to differentiate: NBT assay, concentration 1×10^−7M", "protocol": "The differentiation of HL-60 promyelocytic into monocytes was determined as described by Ostrem et al (J. Biol. Chem. 262, 14164-14171, 1987).\nThe study drugs were dissolved in ethanol and the concentrations determined using UV spectrophotometry (2MD:molar extinction coefficient=42,000 and Imax=252 nm; 1,25(OH)2D3:molar extinction=18,200 and Imax=265 nm). Serial dilutions were prepared so that a range of drug concentrations could be tested without changing the final concentration of ethanol (<0.2%) present in the cell cultures.\nHuman promyelocytic leukemia (HL60) cells were grown in RPMI-1640 medium containing 10% fetal bovine serum. The cells were incubated at 37° C. in the presence of 5% CO2.\nHL60 cells were plated at 1.2×10^5 cells/ml. Eighteen hours after plating, the cells were administered the drug in ethanol. Four days post-dose, the cells were harvested and a nitro blue tetrazolium reduction assay was performed (Collins et al., 1979; J. Exp. Med. 149:969-974, Appendix A). The percentage of differentiated cells was determined by counting a total of 200 cells and recording the number that contained intracellular black-blue formazan deposits. Verification of differentiation to monocytic cells was determined by measuring phagocytic activity (data not shown). All drug concentrations were tested in duplicate.\nThis is illustrated by the biological assay results obtained for (20S)-2-methylene-18,19-dinor-1α,25-dihydroxy-vitamin D3 which is summarized in FIGS. 2 through 6. […] Differentiation activity was assessed by a standard differentiation assay, abbreviated as NBT reduction (nitroblue tetrazolium reduction). The assay was conducted according to known procedures, as given, for example, by DeLuca et al U.S. Pat. No. 4,717,721 and Ostrem et al, J. Biol. Chem. 262, 14164, 1987. For the assay, the differentiation activity of the test compounds is expressed in terms of the percent of HL-60 cells having differentiated to normal cells in response to a given concentration of test compound."}, "[1]": {"biological_target": "T1, 1α,25-dihydroxyvitamin D pig intestinal nuclear receptor (Rattus norvegicus, UniProt P13053)", "T1 construct": "Full-length recombinant rat receptor was expressed in E. coli; His tag (C); made in house; host or cells: E. coli BL21 (DE3) Codon Plus RIL", "T1 sequence (P13053 1-423)": "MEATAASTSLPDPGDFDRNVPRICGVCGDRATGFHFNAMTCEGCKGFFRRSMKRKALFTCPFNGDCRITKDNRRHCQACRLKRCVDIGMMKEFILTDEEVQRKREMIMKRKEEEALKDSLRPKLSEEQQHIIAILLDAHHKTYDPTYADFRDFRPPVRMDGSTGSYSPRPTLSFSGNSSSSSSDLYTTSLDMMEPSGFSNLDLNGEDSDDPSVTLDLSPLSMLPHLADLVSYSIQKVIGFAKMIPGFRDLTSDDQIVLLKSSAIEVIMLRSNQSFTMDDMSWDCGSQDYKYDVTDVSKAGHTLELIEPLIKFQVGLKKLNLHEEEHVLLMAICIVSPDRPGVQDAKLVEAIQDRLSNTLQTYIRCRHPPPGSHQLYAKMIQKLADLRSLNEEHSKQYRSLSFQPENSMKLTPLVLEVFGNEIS", "experiment": "Competitive VDR binding", "details": "competition with 3H-1,25(OH)2D3; FIG. 1", "protocol": "Competitive binding of the analogs to the porcine intestinal receptor was carried out by the method described by Dame et al (Biochemistry 25, 4523-4534, 1986).\nFull-length recombinant rat receptor was expressed in E. coli BL21 (DE3) Codon Plus RIL cells and purified using two different column chromatography systems. The first system was a nickel affinity resin that utilized the C-terminal histidine tag on this protein. The protein that was eluted from this resin was further purified using ion exchange chromatography (S-Sepharose Fast Flow). Aliquots of the purified protein were quick frozen in liquid nitrogen and stored at −80° C. until use. […]\nUnlabeled ligands were dissolved in ethanol and the concentrations determined using UV spectrophotometry. […]\nRadiolabeled and unlabeled ligands were added to 100 mcl of the diluted protein, mixed and incubated overnight on ice to reach binding equilibrium. […] Total binding was determined from the tubes containing only radiolabeled ligand. The percentage of competition was calculated by subtracting the number of dpm remaining in the hydroxylapatite pellet from the total number of dpm bound, dividing by the total number of dpm bound and multiplying by one hundred. Duplicate tubes were prepared and analyzed for each test concentration."}, "[2]": {"system": "24-hydroxylase (24OHase) gene promoter in ROS 17/2.8 (bone) cells", "experiment": "Transcription activation, 24-hydroxylase promoter luciferase reporter", "format": "cell-based", "details": "luciferase 16 h after dosing, FIG. 3", "protocol": "Transcriptional activity was measured in ROS 17/2.8 (bone) cells that were stably transfected with a 24-hydroxylase (24OHase) gene promoter upstream of a luciferase reporter gene (Arbour et al., 1998). Cells were given a range of doses. Sixteen hours after dosing the cells were harvested and luciferase activities were measured using a luminometer.\n“RLU” in FIG. 3 refers to relative luciferase units."}, "[3]": {"experiment": "Intestinal calcium transport (everted gut sac)", "format": "in vivo, rat", "details": "male Sprague-Dawley rats, low calcium diet, four intraperitoneal doses; FIG. 4", "text": "(§1) Weanling, male Sprague-Dawley rats were purchased from Harlan. Upon receipt, the animals were identified by individual tail marks and fed a calcium containing (0.47%) diet (Suda et al., Purified Rodent Diet-Diet 11; Appendix A) for one week before switching to the same diet devoid of calcium (0.02%). Water and a purified rodent diet (Diet 11; Appendix A) containing either 0.47% or 0.02% calcium and 0.3% phosphorus were provided ad libitum. Animals were fed the purified diet containing 0.47% calcium for the first week and then the 0.02% calcium containing diet for the next three weeks of the study. The rats were then fed 0.47% calcium containing diet for one week before switching back to 0.02% calcium containing diet for the remainder of the study. During the second week back on 0.02% calcium containing diet, dose administration began. All doses were administered intraperitoneally in 100 microliters of propylene glycol. Four consecutive doses were given approximately 24 hours apart. […] The level of calcium was determined by diluting the serum into 0.1% lanthum chloride and measuring the absorbance on an atomic absorption spectrophotometer (Perkin Elmer Model 3110, Shelton, Conn.). Twenty-four hours after the last dose, intestinal calcium transport was assessed ex vivo using the everted gut sac technique."}, "[4]": {"experiment": "Bone calcium mobilization (serum calcium)", "format": "in vivo, rat", "details": "male Sprague-Dawley rats, low calcium diet, four intraperitoneal doses; FIGS. 5 and 6", "text": "as §1, with “diet, the animals were tail-bled (baseline serum calcium) and then” for “diet,”, “was initiated.” for “began.”, “apart. Twenty-four hours after the last dose, blood was collected from the tail artery of each experimental animal.” for “apart.”, “Conn.).” for “Conn.). Twenty-four hours after the last dose, intestinal calcium transport was assessed ex vivo using the everted gut sac technique.”"}}, "data": [{"molecule": "C=C1/C(=C\\C=C2/CCC[C@]3(C)[C@@H]([C@H](C)CCCC(C)(C)O)CC[C@@H]23)C[C@@H](O)C[C@@H]1O", "note": "[C001, 1α,25-dihydroxyvitamin D3, reference compound]", "values": [{"measurement": "percent of HL-60 cells induced to differentiate", "setting": "HL-60 cells", "value": "~90", "unit": "%"}]}, {"molecule": "C=C1[C@H](O)CC(=C/C=C2\\CCC[C@@H]3C([C@@H](C)CCCC(C)(C)O)CC[C@@H]23)C[C@H]1O", "note": "(stereo partly drawn) [DP035, (20S)-2-methylene-18,19-dinor-1α,25-dihydroxyvitamin D3]", "values": [{"measurement": "activity in binding to the 1α,25-dihydroxyvitamin D3 receptor", "setting": "[1]", "value": "very active"}, {"measurement": "potency in promoting differentiation of leukemia cells compared with 1α,25-dihydroxyvitamin D3", "setting": "HL-60 cells; HL-60 cells", "value": "more potent"}, {"measurement": "percent of HL-60 cells induced to differentiate", "setting": "HL-60 cells", "value": "the same degree of differentiation"}, {"measurement": "transcriptional activity compared with 1α,25-dihydroxyvitamin D3", "setting": "[2]", "value": "higher transcriptional activity"}, {"measurement": "intestinal calcium transport activity compared with 1α,25-dihydroxyvitamin D3", "setting": "[3]", "value": "as active as"}, {"measurement": "ability to mobilize calcium from bone compared with 1α,25-dihydroxyvitamin D3", "setting": "[4]", "value": "clearly not as active"}]}]}
